# Reference: US12577241B2, “Polycyclic pyridopyrazine derivative” (Shionogi & Co., Ltd., priority 2019, dated 2026)
# Tested on: HIV mutant strains (E92Q/E138T/G140S/Q148H)
# Assay: Test Example 2: Resistance evaluation test (HeLa-CD4 cells, wild and mutant strain)
# Assay type: cell-based
# Conditions: 3 days
# Experimental: Test Example 2: Resistance Evaluation Test
# Serial dilutions of a test sample were prepared in a 96-well microplate (50 μL/well). 2.5×10^5 cells/mL of a HeLa-CD4 cell suspension was dispensed at 100 μL/well to the plate containing the test sample. Then, an HIV virus solution (wild strain and mutant strain) was dispensed at 50 μL/well. The plate was mixed with a plate mixer and cultured for 3 days in a CO2 incubator. The culture supernatant in each well was removed by suction. A cell lysis buffer was dispensed at 100 μL/well, and the plate was frozen in a freezer (−80° C.). The plate frozen in a freezer was thawed at room temperature, then mixed with a plate mixer, and centrifuged at 1,200 rpm for 5 minutes. Beta-Glo Reagent was dispensed at 20 μL/well to a 384-well microplate, 2 μL of the supernatant of each well (diluted as necessary) of the plate after centrifugation was added, and then the mixture was reacted at room temperature for about 30 minutes. The amount of luminescence of the plate after the reaction was measured with a microplate reader. A 50% HIV inhibitory concentration (EC50) was determined from a concentration-dependent curve using the following 4 parameter logistic curve fitting model. y=A+((B−A)/(1+((C/x)^D))) • A=minimum rate of inhibition (negative control, 0%) • B=maximum rate of inhibition (positive control, 100%) • C=compound concentration at an inflection point • D=slope coefficient • x=compound concentration • y=rate of inhibition (%)
# The degree of resistance (fold change (FC)) of each mutant strain was calculated according to the following expression. • FC=EC50 of the mutant strain/EC50 of the wild strain (Results)
row,Structure (SMILES),"FC (fold change, degree of resistance) = EC50 of the mutant strain/EC50 of the wild strain"
1,CCN1C(=O)c2c(O)c(=O)c(C(=O)NCc3cccc(Cl)c3F)cn2[C@H]2C[C@@H](COC)CC[C@H]21 [Compound I-014],4.1

# Tested on: HIV
# Assay: Test Example 1B: Anti-HIV activity (MT-4 cells, MTT)
# Assay type: cell-based
# Conditions: Human immunodeficiency virus 1, MT4, 96 h, 4 days culture, MTT absorbance, read-out: EC50 (50% HIV inhibitory concentration)
# Experimental: Test Example 1B: Anti-HIV Activity
# Serial dilutions of a test sample were prepared in a 96-well microplate (50 μL/well). 2.5×10^5 cells/mL of a MT-4 cell suspension was dispensed at 100 μL/well to the plate containing the test sample. Then, an HIV virus solution was dispensed at 50 μL/well. The plate was mixed with a plate mixer and cultured for 4 days in a CO2 incubator. An MTT (3-(4,5-dimethylthiazol-2-yl)-2,5-diphenyltetrazolium bromide) solution was dispensed at 30 μL/well. The plate was reacted for 1 hour in a CO2 incubator. 150 μL of the supernatant was removed from each well so as not to take up the cells. 150 μL of a cell lysis solution was added to each well and well mixed with a plate mixer until the cells were completely lysed. The absorbance of the mixed plate was measured at two wavelengths of 560 nm and 690 nm using a microplate reader. A 50% HIV inhibitory concentration (EC50) was determined from a concentration-dependent curve using the following 4 parameter logistic curve fitting model. y=A+((B−A)/(1+(C/x)^D)) • A=minimum rate of inhibition (negative control, 0%) • B=maximum rate of inhibition (positive control, 100%) • C=compound concentration at an inflection point • D=slope coefficient • x=compound concentration • y=rate of inhibition (%) (Results)
row,EC50 [nM],Structure (SMILES)
1,5.4,CCN1C(=O)c2c(O)c(=O)c(C(=O)NCc3ccc(F)cc3F)cn2[C@H]2Cc3ccccc3[C@H]21 [Compound I-035]
2,3.6,CCN1C(=O)c2c(O)c(=O)c(C(=O)NCc3ccc(F)cc3F)cn2[C@H]2[C@@H]1CCC2(F)F [Compound I-037]
3,7.1,CCN1C(=O)c2c(O)c(=O)c(C(=O)NCc3cccc(Cl)c3F)cn2[C@H]2CCC3(CC3)C[C@H]21 [Compound I-036]
4,6.2,CCN1C(=O)c2c(O)c(=O)c(C(=O)NCc3cccc(Cl)c3F)cn2[C@H]2[C@@H]1[C@@H]1CC[C@H]2O1 [Compound I-043]
5,12,CCN1C(=O)c2c(O)c(=O)c(C(=O)NCc3nccc(Cl)c3F)cn2[C@H]2Cc3ccccc3[C@H]21 [Compound I-034]
6,7,CCN1C(=O)c2c(O)c(=O)c(C(=O)NCc3cccc(Cl)c3F)cn2[C@@H]2[C@H]1[C@H]1CC[C@@H]2O1 [Compound I-044]
7,9.7,CCN1C(=O)c2c(O)c(=O)c(C(=O)NCc3cccc(Cl)c3F)cn2[C@H]2Cc3ccccc3[C@H]21 [Compound I-033]
8,13,CCN1C(=O)c2c(O)c(=O)c(C(=O)NCc3nccc(Cl)c3F)cn2[C@@H]2[C@H]1CCC2(F)F [Compound I-040]
9,4.3,CCN1C(=O)c2c(O)c(=O)c(C(=O)NCc3ccc(F)cc3F)cn2[C@@H]2[C@H]1CCC2(F)F [Compound I-038]
10,12,CCN1C(=O)c2c(O)c(=O)c(C(=O)NCc3nccc(Cl)c3F)cn2[C@@H]2CC(F)(F)CC[C@@H]21 [Compound I-041]
11,9.8,CCN1C(=O)c2c(O)c(=O)c(C(=O)NCc3nccc(Cl)c3F)cn2[C@H]2[C@@H]1CCC2(F)F [Compound I-039]
12,7.9,CCN1C(=O)c2c(O)c(=O)c(C(=O)NCc3nccc(Cl)c3F)cn2[C@H]2CC(F)(F)CC[C@H]21 [Compound I-042]

# Tested on: HIV
# Assay: Test Example 1: Anti-HIV activity (MT-4 cells, CellTiter-Glo)
# Assay type: cell-based
# Conditions: 4 days culture, CellTiter-Glo luminescence, read-out: EC50 (50% HIV inhibitory concentration)
# Experimental: Test Example 1: Anti-HIV Activity
# Serial dilutions of a test sample were prepared in a 384-well microplate by a dispensing machine. 6.25×10^4 cells/mL of a MT-4 cell suspension was dispensed at 20 μL/well to the plate containing the test sample. Then, an HIV virus solution was dispensed at 20 μL/well. The plate was mixed with a plate mixer and cultured for 4 days in a CO2 incubator. On day 4 of culture, CellTiter-Glo or CellTiter-Glo 2.0 was dispensed at 20 μL/well. The plate was reacted while being stirred with the plate mixer at room temperature for about 15 minutes. The amount of luminescence of the plate after the reaction was measured with a microplate reader. A 50% HIV inhibitory concentration (EC50) was determined from a concentration-dependent curve using the following 4 parameter logistic curve fitting model. y=A+((B−A)/(1+((C/x)^D))) • A=minimum rate of inhibition (negative control, 0%) • B=maximum rate of inhibition (positive control, 100%) • C=compound concentration at an inflection point • D=slope coefficient • x=compound concentration • y=rate of inhibition (%) (Results)
row,Structure (SMILES),EC50 [nM]
1,CCN1C(=O)c2c(O)c(=O)c(C(=O)NCc3cccc(Cl)c3F)cn2[C@H]2[C@H](COC)CC[C@H]21 [Compound I-013],2.5
2,CCN1C(=O)c2c(O)c(=O)c(C(=O)NCc3cccc(Cl)c3F)cn2[C@H]2CC(F)(F)C[C@H]21 [Compound I-001],1.4

# Same assay, conditions: Human immunodeficiency virus 1, MT4, 96 h, 4 days culture, CellTiter-Glo luminescence, read-out: EC50 (50% HIV inhibitory concentration)
row,EC50 [nM],Structure (SMILES)
1,3.3,CN1C(=O)c2c(O)c(=O)c(C(=O)NCc3nccc(Cl)c3F)cn2[C@H]2CCCC[C@H]21 [Compound I-004]
2,0.52,CCN1C(=O)c2c(O)c(=O)c(C(=O)NCc3c(F)cc(F)cc3F)cn2[C@H]2CCCC(F)(F)[C@H]21 [Compound I-008]
3,0.7,CN1C(=O)c2c(O)c(=O)c(C(=O)NCc3c(F)cc(F)cc3F)cn2[C@H]2CCCC[C@H]21 [Compound I-027]
4,0.93,CCN1C(=O)c2c(O)c(=O)c(C(=O)NCc3c(F)cc(F)cc3F)cn2[C@H]2CCC(F)(F)C[C@H]21 [Compound I-012]
5,1.5,CCN1C(=O)c2c(O)c(=O)c(C(=O)NCc3c(F)cc(F)cc3F)cn2[C@H]2CC(F)(F)C[C@H]21 [Compound I-002]
6,2.1,CCN1C(=O)c2c(O)c(=O)c(C(=O)NCc3ccc(F)cc3F)cn2[C@H]2CCCC[C@H]21 [Compound I-025]
7,8.2,CCN1C(=O)c2c(O)c(=O)c(-c3nnc(Cc4ccc(F)cc4F)s3)cn2[C@H]2[C@@H]3CC[C@@H](C3)[C@H]21 [Compound I-019]
8,3.6,CCN1C(=O)c2c(O)c(=O)c(-c3nnc(Cc4ccc(F)cc4F)s3)cn2[C@H]2CCCC(F)(F)[C@H]21 [Compound I-021]
9,2.3,CN1C(=O)c2c(O)c(=O)c(-c3nnc(Cc4ccc(F)cc4F)s3)cn2[C@H]2CCCC[C@H]21 [Compound I-018]
10,1.3,CCN1C(=O)c2c(O)c(=O)c(C(=O)NCc3c(F)cc(F)cc3F)cn2[C@H]2CCCC[C@H]21 [Compound I-026]
11,0.63,CCN1C(=O)c2c(O)c(=O)c(C(=O)NCc3c(F)cc(F)cc3F)cn2[C@@H]2[C@H]1CCCC2(F)F [Compound I-006]
12,1.9,CCN1C(=O)c2c(O)c(=O)c(C(=O)NCc3cccc(Cl)c3F)cn2[C@H]2CCCC[C@H]21 [Compound I-024]
13,4.6,CCN1C(=O)c2c(O)c(=O)c(-c3nnc(Cc4ccc(F)cc4F)s3)cn2[C@H]2CCC(F)(F)C[C@H]21 [Compound I-023]
14,5.2,CCN1C(=O)c2c(O)c(=O)c(C(=O)NCc3c(F)cc(F)cc3F)cn2[C@H]2[C@@H]3CC[C@@H](C3)[C@H]21 [Compound I-010]
15,2.2,CCN1C(=O)c2c(O)c(=O)c(C(=O)NCc3cccc(Cl)c3F)cn2[C@H]2CCC[C@H]21 [Compound I-029]
16,9,CCN1C(=O)c2c(O)c(=O)c(C(=O)NCc3cccc(Cl)c3F)cn2[C@H]2CCC(F)(F)C[C@H]21 [Compound I-011]
17,2.6,CCN1C(=O)c2c(O)c(=O)c(C(=O)NCc3c(F)cc(F)cc3F)cn2[C@H]2CCC[C@H]21 [Compound I-030]
18,0.7,CCN1C(=O)c2c(O)c(=O)c(C(=O)NCc3cccc(Cl)c3F)cn2[C@H]2CCCC(F)(F)[C@H]21 [Compound I-007]
19,2.5,CCN1C(=O)c2c(O)c(=O)c(C(=O)NCc3cccc(Cl)c3F)cn2[C@H]2C[C@@H](COC)C[C@H]21 [Compound I-015]
20,1.2,CN1C(=O)c2c(O)c(=O)c(C(=O)NCc3cccc(Cl)c3F)cn2[C@H]2CCCC[C@H]21 [Compound I-028]

row,Structure (SMILES),EC50 [nM]
1,CCN1C(=O)c2c(O)c(=O)c(C(=O)NCc3cccc(Cl)c3F)cn2[C@H]2C[C@@H](COC)CC[C@H]21 [Compound I-014],3.8
